{
  "source": "paper PMC4822253",
  "about": "“Inhibition of BMP and of TGFβ receptors downregulates expression of XIAP and TAK1 leading to lung cancer cell death” (Molecular Cancer, 2016)",
  "key": {"[1]": {"tested_on": "lung cancer cell lines H157, A549, H1299, H727, U1752", "test": "Cell counts in panel of lung cancer cell lines", "format": "cell-based", "conditions": "1 μM; 7 days; percent of vehicle control", "method": "(§1) Cells were plated into 6 well plates at 10^5 cells per well and treated with 1 μM DMSO or antagonist for 7 days. The cells were detached with trypsin, stained with trypan blue, and the number of live cells counted using a hemocytometer.\nAdditional file 1: Figure S1. […] Data is depicted as percent of vehicle control. Experiments were performed 3 times. (TIF 749 kb) Additional file 2: Figure S2. […] Non-specific band from the same Western blot was used as a loading control. Experiments performed at least 3 times. (TIF 2680 kb) Additional file 3: Figure S3. Pharmacokinetics of DMH2. […] (TIF 1187 kb) Additional file 4: Figure S4. […] (A-B) Western blot of tumor xenografts treated with BMP inhibitors for 24 h and 9 days. […] (E-G) Data depict the mean as the percent of control. Experiments were performed at least 3 times. (TIF 9413 kb) Additional file 5: Figure S5. […] The data represents the mean of at least 4 experiments. (TIF 359 kb) Additional file 6: Figure S6. […] The studies represent the mean of at least 3 independent experiments. […] (TIF 2411 kb)"}, "[2]": {"tested_on": "A549 cells", "test": "Western blot analysis of cells in culture", "format": "cell-based", "method": "(§2) Total cellular protein was prepared using RIPA buffer containing a protease inhibitor cocktail and protein concentration was measured using the BCA assay as described. In brief, protein was analyzed by SDS-PAGE, transferred to nitrocellulose (Schleicher and Schuell, Keene, NH). After blocking, the blots were incubated overnight at 4 °C with the appropriate primary antibody in Tris-buffered saline with 1 % Tween (TBST) and 5 % BSA. Secondary antibodies were applied for 1 h at room temperature. Specific proteins were detected using the enhanced chemiluminescence system (Amersham, Arlington Heights, IL). The primary antibodies that were used were rabbit monoclonal anti-pSmad 1/5, rabbit monoclonal anti-pSmad2, rabbit monoclonal anti-Smad2, rabbit monoclonal anti-pTAK1, rabbit monoclonal XIAP, rabbit anti-monoclonal p-p65, rabbit monoclonal anti-activated caspase-3, rabbit polyclonal anti-BMPRII, and rabbit monoclonal anti-EGR-1 (Cell signaling Technology, Danvers MA), Rabbit monoclonal anti-TAK1 (Invitrogen, Grand Island NY), rabbit anti-actin, an affinity isolated antigen specific antibody (Sigma, Saint Louis, MO), rabbit monoclonal anti-Id1 and rabbit monoclonal anti-Id3 (Calbioreagents, San Mateo, CA), rabbit polyclonal anti-GAPDH (Sigma, St. Louis, MO) and rabbit polyclonal pMEK-1/2 (Cell Signaling, Danvers MA)."}, "[3]": {"tested_on": "H1299 cells", "test": "Western blot analysis of cells in culture", "format": "cell-based", "conditions": "H1299 cells", "method": "as §2"}, "[4]": {"tested_on": "A549 cells", "test": "Cell counts (live cells, trypan blue)", "format": "cell-based", "conditions": "compound alone, 7 days", "method": "as §1"}, "[5]": {"tested_on": "H1299 cells", "test": "Cell counts (live cells, trypan blue)", "format": "cell-based", "method": "as §1"}, "[6]": {"molecular_target": "Alk6 (Homo sapiens, UniProt O00238)", "sequence (O00238 149-502 limits assumed)": "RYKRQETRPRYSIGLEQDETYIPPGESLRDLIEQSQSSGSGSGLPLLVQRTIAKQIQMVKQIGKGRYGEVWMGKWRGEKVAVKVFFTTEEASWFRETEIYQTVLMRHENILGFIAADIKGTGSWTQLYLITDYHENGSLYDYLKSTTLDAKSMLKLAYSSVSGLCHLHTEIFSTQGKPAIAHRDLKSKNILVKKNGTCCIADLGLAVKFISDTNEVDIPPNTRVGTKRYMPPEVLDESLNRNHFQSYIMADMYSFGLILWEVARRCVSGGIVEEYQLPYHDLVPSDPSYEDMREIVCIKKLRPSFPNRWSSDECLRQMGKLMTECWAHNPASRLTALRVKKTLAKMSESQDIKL", "conditions": "read-out: IC50 Alk6/BMPRII; kinase activity; ATP 10 Micromolar; 10-point, duplicate", "method": "(§3) This was a 10-point assay starting from 100 μM to 100 nM performed in duplicate. The ATP concentration was 10 Micromolar."}, "[7]": {"molecular_target": "T1, Alk2/ACVRR1 (Homo sapiens, UniProt Q04771)", "T1 sequence (Q04771 21-509)": "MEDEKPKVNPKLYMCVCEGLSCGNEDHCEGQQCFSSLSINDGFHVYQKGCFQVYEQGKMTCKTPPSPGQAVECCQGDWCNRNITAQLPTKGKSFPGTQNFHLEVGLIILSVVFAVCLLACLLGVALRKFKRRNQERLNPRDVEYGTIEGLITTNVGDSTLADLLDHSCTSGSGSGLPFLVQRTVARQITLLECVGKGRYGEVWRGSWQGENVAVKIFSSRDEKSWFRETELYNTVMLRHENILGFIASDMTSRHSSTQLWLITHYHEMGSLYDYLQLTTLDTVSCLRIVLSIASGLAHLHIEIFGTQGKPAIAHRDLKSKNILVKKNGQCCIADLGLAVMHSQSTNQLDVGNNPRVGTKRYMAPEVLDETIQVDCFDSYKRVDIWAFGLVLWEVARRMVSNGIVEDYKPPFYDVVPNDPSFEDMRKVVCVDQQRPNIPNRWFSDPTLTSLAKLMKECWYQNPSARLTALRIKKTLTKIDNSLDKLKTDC", "conditions": "read-out: IC50 Alk2/ACVRR1; kinase activity; ATP 10 Micromolar; 10-point, duplicate", "method": "as §3"}, "[8]": {"molecular_target": "Alk3/BMPR1A (Homo sapiens, UniProt P36894)", "sequence (P36894 24-532)": "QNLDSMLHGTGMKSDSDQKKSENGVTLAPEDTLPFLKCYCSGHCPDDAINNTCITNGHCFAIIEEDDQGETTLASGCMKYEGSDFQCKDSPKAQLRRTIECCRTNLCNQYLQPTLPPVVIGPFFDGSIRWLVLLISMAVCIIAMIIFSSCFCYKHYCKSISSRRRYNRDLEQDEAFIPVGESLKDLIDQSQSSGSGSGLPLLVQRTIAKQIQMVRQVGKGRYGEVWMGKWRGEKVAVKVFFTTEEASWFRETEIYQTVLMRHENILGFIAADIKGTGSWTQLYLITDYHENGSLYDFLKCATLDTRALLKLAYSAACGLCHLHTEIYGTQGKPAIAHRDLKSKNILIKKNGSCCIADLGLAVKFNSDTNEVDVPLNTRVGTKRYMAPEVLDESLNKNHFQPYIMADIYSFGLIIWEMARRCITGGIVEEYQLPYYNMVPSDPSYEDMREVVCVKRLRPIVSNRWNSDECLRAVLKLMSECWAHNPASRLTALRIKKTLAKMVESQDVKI", "conditions": "read-out: IC50 Alk3/BMPR1A; kinase activity; ATP 10 Micromolar; 10-point, duplicate", "method": "as §3"}, "[9]": {"tested_on": "lung cancer cell lines H157, A549, H1299, H727, U1752", "test": "Western blot of Id1 in panel of lung cancer cell lines", "format": "cell-based", "conditions": "1 μM; 48 h; all cell lines of the panel", "method": "as §2\nAdditional file 1: Figure S1. […]"}, "[10]": {"tested_on": "H1299 tumor xenografts", "test": "Western blot analysis of tumor xenografts", "format": "in vivo, nude mice", "method": "Total cellular protein was prepared using RIPA buffer containing a protease inhibitor cocktail and protein concentration was measured using the BCA assay as described. In brief, protein was analyzed by SDS-PAGE, transferred to nitrocellulose (Schleicher and Schuell, Keene, NH). After blocking, the blots were incubated overnight at 4 °C with the appropriate primary antibody in Tris-buffered saline with 1 % Tween (TBST) and 5 % BSA. Secondary antibodies were applied for 1 h at room temperature. Specific proteins were detected using the enhanced chemiluminescence system (Amersham, Arlington Heights, IL). […]\nH1299 cells were stably transfected with the Id1 promoter-luciferase reporter. […] After approximately 12 days the mice were anesthetized and the luciferase activity measured. […] Mice were injected IP with 150 mg/kg luciferin-D and after a 15-min uptake period tumors were imaged with IVIS Spectrum and analyzed using Living Image software. […]"}, "[11]": {"tested_on": "H1299 Id1-luc tumor xenografts", "test": "Tumor xenograft Id1 promoter-luciferase luminescence", "format": "in vivo, nude mice", "conditions": "3 mg/kg IP; 4 h, 24 h, and 48 h following treatment; greatest effect at 24 h", "method": "H1299 cells were stably transfected with the Id1 promoter-luciferase reporter. Five million cells were injected subcutaneously into the flank of NCI female nude mice. After approximately 12 days the mice were anesthetized and the luciferase activity measured. Baseline luciferase activity was obtained just prior to the injection of inhibitors. Mice were injected IP with 150 mg/kg luciferin-D and after a 15-min uptake period tumors were imaged with IVIS Spectrum and analyzed using Living Image software. […] The tumors were harvested on ice, homogenized, and placed in lysis buffer."}, "[12]": {"conditions": "24 and 48 h, suppression at higher concentrations"}},
  "data": [
    {"smiles": "c1ccc2c(-c3cnn4cc(-c5ccc(OCCN6CCOCC6)cc5)cnc34)ccnc2c1", "note": "[DMH2]", "values": [
      {"measurement": "growth (cell counts)", "setting": "[1]", "value": "inhibited growth in all of the cell lines"},
      {"measurement": "low dose that can cause an increase in the expression of Id1", "setting": "[2]; [12]", "value": 0.5, "unit": "µM"},
      {"measurement": "expression of activated caspase-3", "setting": "[2]; 48 h", "value": "induced"},
      {"measurement": "expression of phosphorylated MEK-1/2", "setting": "[2]; 48 h", "value": "increase"},
      {"measurement": "expression of Smad2", "setting": "[2]; 3 days", "value": "very significant decrease"},
      {"measurement": "expression of TAK1 and phosphorylation of NF-kappa B subunit p65", "setting": "[2]; 3 days", "value": "decrease"},
      {"measurement": "expression of XIAP", "setting": "[2]; after 3 days", "value": "significant decrease"},
      {"measurement": "phosphorylation of TAK1 and Smad2", "setting": "[2]; increasing doses, 48 h", "value": "increase in phosphorylation of TAK1and Smad2 at lower doses, which tapered off at higher doses"},
      {"measurement": "expression of phosphorylated MEK-1/2", "setting": "[3]; 24 and 48 h", "value": "increase"},
      {"measurement": "low dose that can cause an increase in the expression of Id1", "setting": "[3]; [12]", "value": 0.5, "unit": "µM"},
      {"measurement": "expression of activated caspase-3", "setting": "[3]; 48 h", "value": "induced"},
      {"measurement": "expression of Smad2", "setting": "[3]; 3 days", "value": "very significant decrease"},
      {"measurement": "expression of TAK1 and phosphorylation of NF-kappa B subunit p65", "setting": "[3]; 3 days", "value": "decrease"},
      {"measurement": "expression of XIAP", "setting": "[3]; after 3 days (cell line not stated for DMH1 and LDN)", "value": "significant decrease"},
      {"measurement": "phosphorylation of TAK1 and Smad2", "setting": "[3]; increasing doses, 48 h", "value": "increase in phosphorylation of TAK1and Smad2 at lower doses, which tapered off at higher doses"},
      {"measurement": "growth (cell counts)", "setting": "[4]", "value": "growth suppression"},
      {"measurement": "growth suppression compared to DMH1 and LDN", "setting": "[5]", "value": "significantly greater growth suppression"},
      {"measurement": "growth (cell counts)", "setting": "[5]; compound alone, 7 days", "value": "significant growth suppression"},
      {"measurement": "IC50", "setting": "[6]", "value": 43, "unit": "nM"},
      {"measurement": "IC50", "setting": "[7]", "value": 23, "unit": "nM"},
      {"measurement": "IC50", "setting": "[8]", "value": 92, "unit": "nM"},
      {"measurement": "expression of Id1", "setting": "[9]", "value": "decreased"},
      {"measurement": "increase in the expression of Id1 protein compared to controls", "setting": "[10]; 9 days, twice-daily injection, normalized to GAPDH", "value": 103, "unit": "%"},
      {"measurement": "phosphorylated TAK1 and Smad2 in tumor xenografts", "setting": "[10]; treated for 24 h and 9 days", "value": "increase"},
      {"measurement": "tumor luminescence (Id1 promoter) compared to baseline", "setting": "[11]", "value": "increased"}
    ]}
  ]
}
